Assays:
[1] = Solubility observed in structural identification; assay type: physicochemical
[2] = tested on: Psoriasis in Mice Induced by Imiquimod; assay: Histomorphological observation (PASI scoring and day 7 photographs of back skin lesions) of psoriasis in mice induced by imiquimod; assay type: in vivo, male Balb/c mice; conditions: for skin lesion scores (overall score), high-dose: vs high-dose tropic acid, compound III P<0.01, compound IV P<0.05; for skin erythema score, low-dose / skin lesion scores (overall score), low-dose: low-dose 3 mg/kg·d by gavage; for skin erythema score, low-dose: compared with low-dose tropic acid, P<0.01; for skin lesion scores (overall score), low-dose: vs low-dose tropic acid; for therapeutic effect on back skin injury induced by imiquimod: overall conclusion, mouse model of psoriasis; for therapeutic effects compared with tropic acid: summary statement
Text: 110 male Balb/c mice (8-10 weeks, 20-25 g each) were anesthetized by intraperitoneal injection of 10% chloral hydrate, and approximately 2 cm×4 cm of back hair was shaved off. The mice were randomly divided into 11 groups, with 10 mice in each group, including a blank control group, a model group, a positive drug group, a high-dose tropic acid group (A), a low-dose tropic acid group (B), a high-dose 4-hydroxy-α-(hydroxymethyl)phenylacetic acid group (C), a low-dose 4-hydroxy-α-(hydroxymethyl)phenylacetic acid group (D), a high-dose 3,4-dihydroxy-α-(hydroxymethyl)phenylacetic acid group (E), a low-dose 3,4-dihydroxy-α-(hydroxymethyl)phenylacetic acid group (F), a high-dose 3,4,5-trihydroxy-α-(hydroxymethyl)phenylacetic acid group (G), and a low-dose 3,4,5-trihydroxy-α-(hydroxymethyl)phenylacetic acid group (H) of. Except for the blank control group, which received no treatment, all other groups were treated with 50 mg of 5% imiquimod cream daily to prepare a psoriasis mouse model. All groups were administered simultaneously, with dosing twice daily, and the grouping and dosing regimen are detailed in Table 1. The treatment was continued for 6 days. On the 7th day, the skin lesions of the mice were photographed and recorded, after which the mice were euthanized and their back skin was taken for further use.
Histomorphological observation: Starting from the first day of modeling, the degree of erythema, scales, and inflammatory infiltration thickening on the back of mice were scored daily according to the PASI scoring criteria. The PAIS scoring criteria were as follows: 0-none; 1-mild; 2-moderate; 3-severe cases; 4-extremely severe. The more severe the degree of skin damage, the higher the score. The three points were summed to obtain the total PASI score. The average score of each group of mice were then plotted to create a trend line to observe the changes in skin lesions of each group of mice. Digital photography was used to record the skin lesions on the back of the mice in each group on the 7th day for observation and comparison.

[3] = tested on: Psoriasis in Mice Induced by Imiquimod; assay: Histopathological examination (HE staining, epidermal thickness) of back skin of mice with imiquimod-induced psoriasis; assay type: in vivo, male Balb/c mice; conditions: day 7, HE staining, compared with the model group
Text: 110 male Balb/c mice (8-10 weeks, 20-25 g each) were anesthetized by intraperitoneal injection of 10% chloral hydrate, and approximately 2 cm×4 cm of back hair was shaved off. […] On the 7th day, the skin lesions of the mice were photographed and recorded, after which the mice were euthanized and their back skin was taken for further use.
Histopathological examination: On the 7th day of modeling, the mice were euthanized, and the back skin of each group of mice was cut and fixed in 4% paraformaldehyde for 24 hours, embedded in paraffin, and sliced into 4 μm sections. HE staining, sealing, and observation of histopathological changes under microscope were performed, and the epidermal thickness was measured using the scale function of the cellSens standard.

[4] = high-dose 6 mg/kg·d by gavage, after 6 days, compared with high-dose tropic acid, P<0.05

| SMILES | solubility in methanol ([1]; methanol) | solubility in water ([1]; water) | degree of inflammatory infiltration and thickening of the skin [2, 4] | degree of scale reduction [2, 4] | skin erythema score, high-dose [2, 4] | skin lesion scores (overall score), high-dose ([2]; high-dose 6 mg/kg·d by gavage) | skin erythema score, low-dose ([2]; after 6 days) | skin lesion scores (overall score), low-dose ([2]; P<0.05) | therapeutic effect on back skin injury induced by imiquimod [2] | therapeutic effects compared with tropic acid [2] | incomplete skin keratinization [3] | thickness of the stratum spinosum ([3]; positive drug = dexamethasone 5 mg/kg·d by gavage) |
| --- | --- | --- | --- | --- | --- | --- | --- | --- | --- | --- | --- | --- |
| O=C(O)C(CO)c1ccc(O)c(O)c1 (stereo not drawn) [compound III, 3,4-dihydroxy-α-(hydroxymethyl)phenylacetic acid] | easily soluble | easily soluble | significant decrease | superior | significantly reduced | superior | significantly reduced | superior | best therapeutic effect | more significant therapeutic effects than tropic acid |  |  |
| C[C@@H]1C[C@H]2[C@@H]3CCC4=CC(=O)C=C[C@]4(C)[C@@]3(F)[C@@H](O)C[C@]2(C)[C@@]1(O)C(=O)CO [positive drug, dexamethasone] |  |  |  |  |  |  |  |  |  |  | significantly improvements | significantly reduced |
| O=C(O)C(CO)c1cc(O)c(O)c(O)c1 (stereo not drawn) [compound IV, 3,4,5-trihydroxy-α-(hydroxymethyl)phenylacetic acid] |  |  | significant decrease | superior |  | superior | significantly reduced | superior | best therapeutic effect | more significant therapeutic effects than tropic acid |  |  |
